# Experiments:
# [1] = Absorbance at photostationary state (PSS) under simulated sunlight or 365 nm light; format: physicochemical; design: λ max: unit not given here; settings: for Absorbance at PSS, 365 nm: 365 nm light source; for Absorbance at PSS, 365 nm / Absorbance at PSS, full / Absorbance at PSS, +UV / λ max: 2.0×10^−5 M in triglyme; for sensitivity index: ratio of PSS under 365 nm light to PSS under full spectrum light (without UV blocking film); for Absorbance at PSS, full: simulated sunlight (QSUN solar simulator), no UV blocking film; for Absorbance at PSS, +UV: simulated sunlight with UV blocking film (cutoff 370 nm); for λ max: wavelength of maximum absorbance in the visible range, ring-closed isoform
# Procedure, shortened: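 Compounds at 2.0×10^−5 M in triglyme, photofaded with visible light, then irradiated with simulated sunlight (xenon arc) or 365 nm light until the UV/Vis spectrum stabilized. Also irradiated through a UV-blocking film (370 nm cutoff); sensitivity index is PSS under 365 nm divided by PSS under full spectrum.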
# [2] = Solubility in indicated solvent; format: physicochemical; settings: % wt soluble in triglyme
# From the text: A compound with greater solubility allows for a formulation or material with a greater concentration of coloured molecule to be incorporated into a composition. This may allow for increasing the contrast ratio for a compound with a lesser absorbance at PSS. Inclusion of a solubilizing group in a compound according to various embodiments of the invention may increase solubility. Examples of solubilizing groups may include alkoxy or siloxy groups.
Structure (SMILES),"Absorbance at PSS, 365 nm [1]",sensitivity index [1],"Absorbance at PSS, full [1]","Absorbance at PSS, +UV [1]",λ max [1],Solubility [2] [% wt]
"FC1(F)C(c2cc(-c3ccccc3)sc2-c2ccccc2)=C(c2cc(-c3ccc(Cl)cc3)sc2-c2ccccc2)C(F)(F)C1(F)F [S006, 5-(4-chlorophenyl)-3-(2-(2,5-diphenylthiophen-3-yl)-3,3,4,4,5,5-hexafluorocyclopent-1-en-1-yl)-2-phenylthiophene]",0.141,3.71,0.038,0.013,610,3
"CC(C)(C)c1ccc(-c2cc(C3=C(c4cc(-c5ccc(C(C)(C)C)cc5)sc4-c4cccs4)C(F)(F)C(F)(F)C3(F)F)c(-c3cccs3)s2)cc1 [S049, 3,3″-(perfluorocyclopent-1-ene-1,2-diyl)bis(5-(4-(tert-butyl)phenyl)-2,2′-bithiophene)]",0.217,2.49,0.087,0.044,625,2
"Cc1c(-c2ccccc2)sc(-c2ccccc2)c1C1=C(c2c(-c3ccccc3)sc(-c3ccccc3)c2C)C(F)(F)C(F)(F)C1(F)F [S017, 4,4′-(perfluorocyclopent-1-ene-1,2-diyl)bis(3-methyl-2,5-diphenylthiophene)]",0.049,5.44,0.009,0.0025,605,1
"COc1cccc(-c2cc(C3=C(c4cc(-c5cccc(OC)c5)sc4-c4cccc(OC)c4)C(F)(F)C(F)(F)C3(F)F)c(-c3cccc(OC)c3)s2)c1 [S096, 3,3′-(perfluorocyclopent-1-ene-1,2-diyl)bis(2,5-bis(3-methoxyphenyl)thiophene)]",0.183,4.07,0.045,0.014,609,15
"CCOCCOCCOCCOC(CC)(CC)c1ccc(-c2sc(-c3ccc(C(C)(C)C)s3)cc2C2=C(c3cc(-c4ccc(C(C)(C)C)s4)sc3-c3ccc(C(CC)(CC)OCCOCCOCCOCC)s3)C(F)(F)C(F)(F)C2(F)F)s1 [S128, 13,13′-(3′,3″″-(perfluorocyclopent-1-ene-1,2-diyl)bis(5″-(tert-butyl)-[2,2′: 5′,2″-terthiophene]-5,3′-diyl))bis(13-ethyl-3,6,9,12-tetraoxapentadecane)]",0.403,1.53,0.264,0.224,648,>25
COCCC[Si](CCCOC)(CCCOC)c1ccc(-c2sc(-c3ccc(C(C)(C)C)s3)cc2C2=C(c3cc(-c4ccc(C(C)(C)C)s4)sc3-c3ccc([Si](CCCOC)(CCCOC)CCCOC)s3)C(F)(F)C(F)(F)C2(F)F)s1 [S158],0.394,1.15,0.342,0.291,650,>20
Cc1cc(-c2cc(C3=C(c4cc(-c5cc(C)c(C)s5)sc4-c4cc(C)c(C)s4)C(F)(F)C(F)(F)C3(F)F)c(-c3cc(C)c(C)s3)s2)sc1C [S011],0.363,1.81,0.201,0.142,655,3
"COCCOCCOCCOC(C)(C)c1ccc(-c2cc(C3=C(c4cc(-c5ccc(C(C)(C)OCCOCCOCCOC)cc5)sc4-c4ccc(C(C)(C)C)cc4)C(F)(F)C(F)(F)C3(F)F)c(-c3ccc(C(C)(C)C)cc3)s2)cc1 [S068, 12,12′-((4,4′-(perfluorocyclopent-1-ene-1,2-diyl)bis(5-(4-(tert-butyl)phenyl)thiophene-4,2-diyl))bis(4,1-phenylene))bis(12-methyl-2,5,8,11-tetraoxatridecane)]",0.239,2.15,0.111,0.051,615,>20
"CC(C)(C)c1ccc(-c2cc(C3=C(c4cc(-c5ccc(C(C)(C)C)s5)sc4-c4ccc(C(C)(C)C)s4)C(F)(F)C(F)(F)C3(F)F)c(-c3ccc(C(C)(C)C)s3)s2)s1 [S003, 3′,3″″-(perfluorocyclopent-1-ene-1,2-diyl)bis(5,5″-di-tert-butyl-2,2′:5′,2″-terthiophene)]",0.372,1.40,0.2655,0.2055,650,<3
"CC(C)(C)c1ccc(-c2sc(-c3cccs3)cc2C2=C(c3cc(-c4cccs4)sc3-c3ccc(C(C)(C)C)cc3)C(F)(F)C(F)(F)C2(F)F)cc1 [S052, 4,4″-(perfluorocyclopent-1-ene-1,2-diyl)bis(5-(4-(tert-butyl)phenyl)-2,2′-bithiophene)]",0.318,1.54,0.206,0.116,630,1
"COc1ccc(-c2cc(C3=C(c4cc(-c5ccc(OC)s5)sc4-c4ccc(OC)s4)C(F)(F)C(F)(F)C3(F)F)c(-c3ccc(OC)s3)s2)s1 [S020, 3′,3″″-(perfluorocyclopent-1-ene-1,2-diyl)bis(5,5″-dimethoxy-2,2′:5′,2″-terthiophene)]",0.244,2.12,0.115,0.085,665,3
c1ccc(-c2nc(-c3cc(-c4cccs4)sc3-c3cccs3)c(-c3cc(-c4cccs4)sc3-c3cccs3)s2)cc1 [S075],0.302,3.82,0.079,0.031,670,1
COCCC[Si](CCCOC)(CCCOC)c1ccc(-c2cc(C3=C(c4cc(-c5ccc([Si](CCCOC)(CCCOC)CCCOC)s5)sc4-c4ccc([Si](CCCOC)(CCCOC)CCCOC)s4)C(F)(F)C(F)(F)C3(F)F)c(-c3ccc([Si](CCCOC)(CCCOC)CCCOC)s3)s2)s1 [S138],0.337,1.10,0.306,0.262,650,>20
"FC1(F)C(c2cc(-c3ccc(Cl)cc3)sc2-c2ccc(Cl)cc2)=C(c2cc(-c3ccc(Cl)cc3)sc2-c2ccc(Cl)cc2)C(F)(F)C1(F)F [S056, 3,3′-(perfluorocyclopent-1-ene-1,2-diyl)bis(2,5-bis(4-chlorophenyl)thiophene)]",0.194,2.73,0.071,0.026,610,–
"CC(C)(C)c1ccc(-c2oc3cc(O)ccc3c2C2=C(c3c(-c4ccc(C(C)(C)C)cc4)oc4cc(O)ccc34)C(F)(F)C(F)(F)C2(F)F)cc1 [S162, 3,3′-(perfluorocyclopent-1-ene-1,2-diyl)bis(2-(4-(tert-butyl)phenyl)benzofuran-6-ol)]",0.398,3.34,0.119,0.06,520,–
"COc1ccc2c(C3=C(c4c(-c5ccc(C)s5)oc5cc(OC)ccc45)C(F)(F)C(F)(F)C3(F)F)c(-c3ccc(C)s3)oc2c1 [S144, 3,3′-(perfluorocyclopent-1-ene-1,2-diyl)bis(6-methoxy-2-(5-methylthiophen-2-yl)benzofuran)]",0.318,3.88,0.082,0.04,513,–
"COc1ccc(-c2oc3cc(OC)ccc3c2C2=C(c3c(-c4ccc(OC)cc4)oc4cc(OC)ccc34)C(F)(F)C(F)(F)C2(F)F)cc1 [S140, 3,3′-(perfluorocyclopent-1-ene-1,2-diyl)bis(6-methoxy-2-(4-methoxyphenyl)benzofuran)]",0.276,4.25,0.065,0.032,516,–

# From patent US10072023B2, “Diarylethene compounds and uses thereof” (SWITCH MATERIALS, INC., priority 2011, dated 2018)
